≈ marks a conversion by molar mass, not a printed value.
Assays:
Type in all cases: functional
[1] = test system: Staphylococcus aureus; assay: Antibacterial activity against Staphylococcus aureus Newman assessed as bacterial growth inhibition measured after 16 to 18 hrs by serial dilution method; settings: time 16-18 hrs
[2] = test system: Staphylococcus aureus; assay: Antibacterial activity against clinical isolate gentamycin/methicillin resistant Staphylococcus aureus NRS 108 assessed as bacterial growth inhibition measured after 16 to 18 hrs by serial dilution method; settings: time 16-18 hrs
[3] = test system: Staphylococcus aureus; assay: Antibacterial activity against fluoroquinolone/methicillin resistant Staphylococcus aureus clinical isolate 19-25 assessed as bacterial growth inhibition measured after 16 to 18 hrs by serial dilution method; settings: time 16-18 hrs
[4] = test system: Staphylococcus aureus; assay: Antibacterial activity against methicillin resistant Staphylococcus aureus ATCC 43300 assessed as bacterial growth inhibition measured after 16 to 18 hrs by serial dilution method; settings: time 16-18 hrs
[5] = test system: Staphylococcus aureus; assay: Antibacterial activity against clinical isolate oxacillin/tetracycline/methicillin resistant Staphylococcus aureus NRS 100 assessed as bacterial growth inhibition measured after 16 to 18 hrs by serial dilution method; settings: time 16-18 hrs
[6] = test system: Staphylococcus aureus; assay: Antibacterial activity against methicillin resistant Staphylococcus aureus ATCC 33591 assessed as bacterial growth inhibition measured after 16 to 18 hrs by serial dilution method; settings: time 16-18 hrs
[7] = test system: Staphylococcus aureus; assay: Antibacterial activity against clinical isolate aminoglycosides/tetracycline/methicillin resistant Staphylococcus aureus NRS 1 assessed as bacterial growth inhibition measured after 16 to 18 hrs by serial dilution method; settings: time 16-18 hrs
[8] = test system: Staphylococcus aureus; assay: Antibacterial activity against vancomycin-intermediate methicillin resistant Staphylococcus aureus ATCC 700699 assessed as bacterial growth inhibition measured after 16 to 18 hrs by serial dilution method; settings: time 16-18 hrs
[9] = test system: Staphylococcus aureus; assay: Antibacterial activity against clinical isolate erythromycin/methicillin resistant Staphylococcus aureus NRS 70 assessed as bacterial growth inhibition measured after 16 to 18 hrs by serial dilution method; settings: time 16-18 hrs
[10] = test system: Staphylococcus aureus; assay: Antibacterial activity against clinical isolate linezolid/methicillin resistant Staphylococcus aureus NRS 271 assessed as bacterial growth inhibition measured after 16 to 18 hrs by serial dilution method; settings: time 16-18 hrs
[11] = test system: Staphylococcus aureus; assay: Antibacterial activity against fluoroquinolone/methicillin resistant Staphylococcus aureus clinical isolate 19-27 assessed as bacterial growth inhibition measured after 16 to 18 hrs by serial dilution method; settings: time 16-18 hrs
[12] = test system: Staphylococcus aureus; assay: Antibacterial activity against fluoroquinolone/methicillin resistant Staphylococcus aureus clinical isolate 19-26 assessed as bacterial growth inhibition measured after 16 to 18 hrs by serial dilution method; settings: time 16-18 hrs
[13] = test system: Staphylococcus aureus; assay: Antibacterial activity against vancomycin-intermediate methicillin resistant Staphylococcus aureus ATCC 700788 assessed as bacterial growth inhibition measured after 16 to 18 hrs by serial dilution method; settings: time 16-18 hrs
[14] = test system: Klebsiella pneumoniae; assay: Antibacterial activity against Klebsiella pneumoniae ATCC 13883 assessed as bacterial growth inhibition measured after 18 to 24 hrs by two fold microdilution assay; settings: time 18-24 hrs
[15] = test system: Escherichia coli; assay: Antibacterial activity against Escherichia coli ATCC 8739 assessed as bacterial growth inhibition measured after 18 to 24 hrs by two fold microdilution assay; settings: time 18-24 hrs
[16] = test system: Staphylococcus aureus; assay: Antibacterial activity against methicillin resistant Staphylococcus aureus assessed as bacterial growth inhibition by agar dilution assay
[17] = test system: Staphylococcus aureus; assay: Antibacterial activity against Staphylococcus aureus assessed as bacterial growth inhibition by agar dilution assay
[18] = test system: Acinetobacter baumannii; assay: Antibacterial activity against Acinetobacter baumannii assessed as bacterial growth inhibition by agar dilution assay
[19] = test system: Staphylococcus aureus; assay: Antibacterial activity against Staphylococcus aureus ATCC 29213 assessed as bacterial growth inhibition by agar dilution assay
[20] = test system: Staphylococcus aureus; assay: Antibacterial activity against Staphylococcus aureus ATCC 25923 assessed as bacterial growth inhibition by agar dilution assay
[21] = test system: Pseudomonas aeruginosa; assay: Antibacterial activity against Pseudomonas aeruginosa ATCC 27853 assessed as bacterial growth inhibition by agar dilution assay
[22] = test system: Klebsiella pneumoniae; assay: Antibacterial activity against Klebsiella pneumoniae assessed as bacterial growth inhibition by agar dilution assay
[23] = test system: Escherichia coli; assay: Antibacterial activity against Escherichia coli ATCC 25922 assessed as bacterial growth inhibition by agar dilution assay
[24] = test system: Klebsiella pneumoniae; assay: Antibacterial activity against Klebsiella pneumoniae assessed as bacterial growth inhibition measured after 20 hrs by serial dilution method
[25] = test system: Staphylococcus aureus; assay: Antibacterial activity against Staphylococcus aureus assessed as bacterial growth inhibition measured after 20 hrs by serial dilution method
[26] = test system: Pseudomonas aeruginosa; assay: Antibacterial activity against Pseudomonas aeruginosa assessed as bacterial growth inhibition measured after 20 hrs by serial dilution method
[27] = test system: Escherichia coli; assay: Antibacterial activity against Escherichia coli assessed as bacterial growth inhibition measured after 20 hrs by serial dilution method
[28] = test system: Klebsiella pneumoniae; assay: Antibacterial activity against Klebsiella pneumoniae assessed as bacterial growth inhibition measured after 18 to 24 hrs by two fold microdilution assay; settings: time 18-24 hrs
[29] = test system: Staphylococcus aureus; assay: Antibacterial activity against Staphylococcus aureus ATCC 25923 assessed as bacterial growth inhibition measured after 18 to 24 hrs by two fold microdilution assay; settings: time 18-24 hrs
[30] = test system: Escherichia coli; assay: Antibacterial activity against Escherichia coli ATCC 35218 assessed as bacterial growth inhibition measured after 18 to 24 hrs by two fold microdilution assay; settings: ATCC35218, time 18-24 hrs
[31] = test system: Pseudomonas aeruginosa; assay: Antibacterial activity against Pseudomonas aeruginosa assessed as zone of inhibition at 250 ug/ml by agar well diffusion assay; settings: read-out: IZ
[32] = test system: Escherichia coli; assay: Antibacterial activity against Escherichia coli assessed as zone of inhibition at 250 ug/ml by agar well diffusion assay; settings: read-out: IZ
[33] = test system: Staphylococcus aureus; assay: Antibacterial activity against Staphylococcus aureus assessed as zone of inhibition at 250 ug/ml by agar well diffusion assay; settings: read-out: IZ
[34] = test system: Klebsiella pneumoniae; assay: Antibacterial activity against Klebsiella pneumoniae assessed as zone of inhibition at 250 ug/ml by agar well diffusion assay; settings: read-out: IZ
[35] = test system: SiHa; assay: Growth inhibition of human SiHa cells measured after 48 hrs by SRB assay
[36] = test system: MDA-MB-231; assay: Growth inhibition of human MDA-MB-231 cells measured after 48 hrs by SRB assay
[37] = test system: Escherichia coli; assay: Potency index, ratio of ciprofloxacin MIC to test compound MIC for antimicrobial activity against Escherichia coli assessed as bacterial growth inhibition by agar cup diffusion assay

CN[C@H](CC(C)C)C(=O)N[C@H]1C(=O)N[C@@H](CC(N)=O)C(=O)N[C@H]2C(=O)N[C@H]3C(=O)N[C@H](C(=O)N[C@H](C(=O)O)c4cc(O)cc(O)c4-c4cc3ccc4O)[C@H](O)c3ccc(c(Cl)c3)Oc3cc2cc(c3O[C@@H]2O[C@H](CO)[C@@H](O)[C@H](O)[C@H]2O[C@H]2C[C@](C)(N)[C@H](O)[C@H](C)O2)Oc2ccc(cc2Cl)[C@H]1O [VANCOMYCIN]
MIC [1]: 0.78 µg/mL (≈ 0.538 µM)
MIC [2]: 0.78 µg/mL (≈ 0.538 µM)
MIC [3]: 0.78 µg/mL (≈ 0.538 µM)
MIC [4]: 0.78 µg/mL (≈ 0.538 µM)
MIC [5]: 0.78 µg/mL (≈ 0.538 µM)
MIC [6]: 0.78 µg/mL (≈ 0.538 µM)
MIC [7]: 0.78 µg/mL (≈ 0.538 µM)
MIC [8]: 0.78 µg/mL (≈ 0.538 µM)
MIC [9]: 0.78 µg/mL (≈ 0.538 µM)
MIC [10]: 0.78 µg/mL (≈ 0.538 µM)
MIC [11]: 0.78 µg/mL (≈ 0.538 µM)
MIC [12]: 0.78 µg/mL (≈ 0.538 µM)
MIC [13]: 0.78 µg/mL (≈ 0.538 µM)

O=C(O)c1cn(C2CC2)c2cc(N3CCN(Cn4nc(CN5CCN(c6ccccc6)CC5)n(-c5ccccc5)c4=S)CC3)c(F)cc2c1=O
MIC [14]: 0.125 µg/mL (≈ 0.18 µM)
MIC [15]: 0.125 µg/mL (≈ 0.18 µM)

CCOC(=O)c1cn(Cc2nc3ccccc3n2Cc2ccccc2F)c2cc(Cl)c(F)cc2c1=O
MIC [16]: 1 µg/mL (≈ 1.97 µM)
MIC [17]: 1 µg/mL (≈ 1.97 µM)
MIC [18]: 1 µg/mL (≈ 1.97 µM)
MIC [19]: 1 µg/mL (≈ 1.97 µM)
MIC [20]: 1 µg/mL (≈ 1.97 µM)
MIC [21]: 1 µg/mL (≈ 1.97 µM)
MIC [22]: 1 µg/mL (≈ 1.97 µM)
MIC [23]: 1 µg/mL (≈ 1.97 µM)

Cc1cccc2cc(/C=C3\NC(=S)NC3=O)c(=O)[nH]c12
MIC [24]: 0.24 µg/mL (≈ 0.841 µM)
MIC [25]: 0.24 µg/mL (≈ 0.841 µM)
MIC [26]: 0.24 µg/mL (≈ 0.841 µM)
MIC [27]: 0.24 µg/mL (≈ 0.841 µM)

O=C(O)c1cn(C2CC2)c2cc(N3CCN(Cn4nc(CN5CCN(c6ccc(F)cc6)CC5)n(-c5ccccc5)c4=O)CC3)c(F)cc2c1=O
MIC [28]: < 0.24 µg/mL
MIC [29]: < 0.24 µg/mL
MIC [30]: < 0.24 µg/mL

CCOC(=O)c1cn(Cc2nc3ccccc3n2Cc2ccc(Cl)cc2Cl)c2cc(Cl)c(F)cc2c1=O
MIC [16]: 4 µg/mL (≈ 7.16 µM)
MIC [17]: 4 µg/mL (≈ 7.16 µM)
MIC [18]: 4 µg/mL (≈ 7.16 µM)
MIC [19]: 1 µg/mL (≈ 1.79 µM)
MIC [20]: 1 µg/mL (≈ 1.79 µM)
MIC [21]: 4 µg/mL (≈ 7.16 µM)
MIC [22]: 1 µg/mL (≈ 1.79 µM)
MIC [23]: 1 µg/mL (≈ 1.79 µM)

Cc1ccc(Oc2ccnc(Nc3ccc4c(=O)c(C(=O)O)cn(C5CC5)c4c3)n2)cc1
MIC [1]: ≤ 0.17 µg/mL
MIC [2]: ≤ 0.17 µg/mL
MIC [3]: ≤ 0.17 µg/mL
MIC [4]: ≤ 0.17 µg/mL
MIC [5]: ≤ 0.17 µg/mL
MIC [6]: ≤ 0.17 µg/mL
MIC [7]: ≤ 0.17 µg/mL
MIC [8]: ≤ 0.17 µg/mL
MIC [9]: ≤ 0.17 µg/mL
MIC [10]: ≤ 0.17 µg/mL
MIC [11]: ≤ 0.17 µg/mL
MIC [12]: ≤ 0.17 µg/mL

COC(=O)c1cn(C2CC2)c2cc(N3CCN(CC(=O)OC(C)Cn4c([N+](=O)[O-])cnc4C)CC3)c(F)cc2c1=O (centres undefined)
zone of inhibition at 250 µg/mL [31]: 19 mm
zone of inhibition at 250 µg/mL [32]: 19 mm
zone of inhibition at 250 µg/mL [33]: 19 mm
zone of inhibition at 250 µg/mL [34]: 19 mm

Cc1ncc([N+](=O)[O-])n1CC(C)OC(=O)c1cn(C2CC2)c2cc(N3CCNCC3)c(F)cc2c1=O (centres undefined)
zone of inhibition at 250 µg/mL [31]: 25 mm
zone of inhibition at 250 µg/mL [32]: 25 mm
zone of inhibition at 250 µg/mL [33]: 25 mm
MIC [13]: ≤ 0.17 µg/mL
zone of inhibition at 250 µg/mL [34]: 25 mm

CCn1cc(C(=O)O)c(=O)c2cc(F)c(N3CCN(Cn4nc(CN5CCN(c6ccc(F)cc6)CC5)n(-c5ccccc5)c4=O)CC3)cc21
MIC [28]: < 0.24 µg/mL
MIC [29]: < 0.24 µg/mL
MIC [30]: < 0.24 µg/mL

CCn1c(CN2CCN(c3ccccc3)CC2)nn(CN2CCN(c3cc4c(cc3F)c(=O)c(C(=O)O)cn4C3CC3)CC2)c1=S
MIC [14]: 0.125 µg/mL (≈ 0.193 µM)
MIC [15]: 0.125 µg/mL (≈ 0.193 µM)

CC/C(=C(\c1ccccc1)c1ccc(OCCN(C)C)cc1)c1ccccc1 [TAMOXIFEN]
GI50 [35]: 120 nM
GI50 [36]: 240 nM

O=C(O)c1cn(C2CC2)c2cc(N3CCN(C(=O)CCSc4nnnn4Cc4ccccc4)CC3)c(F)cc2c1=O
GI50 [35]: 70 nM
Ratio [37]: 2
GI50 [36]: 80 nM

Source: ChEMBL document CHEMBL5360532, “Current scenario of quinolone hybrids with potential antibacterial activity against ESKAPE pathogens” (Eur J Med Chem, 2023)
